What follows are molecules tested against Aldo-keto reductase family 1 member B1 (Rattus norvegicus, UniProt P07943) (assay: Inhibitory concentration against aldose reductase obtained from rat lens).

SMILES	IC50 [µM]
Cc1ccc(N(CC(=O)O)S(=O)(=O)c2ccccc2)cc1	26
O=C(O)CN(c1ccccc1)S(=O)(=O)c1ccc(Cl)cc1	16
O=C(O)c1ccccc1NS(=O)(=O)c1cccc2ccccc12	8.3
O=C(O)CNS(=O)(=O)c1ccc(F)cc1	43
Cc1ccc(S(=O)(=O)NCC(=O)O)cc1	32
O=C(O)CN(c1ccc(Cl)cc1)S(=O)(=O)c1ccccc1	27
O=C(O)CNS(=O)(=O)c1ccc2ccccc2c1	0.4
O=C(O)CNS(=O)(=O)c1ccc(Cl)cc1	130
Nc1ccc(S(=O)(=O)N(CC(=O)O)c2ccccc2)cc1	9.3
O=C(O)CN(c1cccc(Cl)c1)S(=O)(=O)c1ccccc1	13
COc1ccc(S(=O)(=O)N(C)c2ccccc2C(=O)O)cc1	> 2000
O=C(O)CN(c1ccc(F)cc1)S(=O)(=O)c1ccccc1	22
O=C(O)CN(c1ccccc1)S(=O)(=O)c1ccccc1[N+](=O)[O-]	3.6
COc1ccc(S(=O)(=O)Nc2ccccc2C(=O)O)cc1	130
O=C(O)CN(c1ccccc1)S(=O)(=O)c1ccc2ccccc2c1	4.5
O=C(O)CN(c1ccccc1)S(=O)(=O)c1ccc(NC(=O)c2ccccc2)cc1	0.38

SMILES	IC50 [µM]
CN(c1ccccc1C(=O)O)S(=O)(=O)c1ccc2ccccc2c1	400
O=C(O)CN(c1ccccc1)S(=O)(=O)c1ccccc1	29
O=C(O)c1ccccc1NS(=O)(=O)c1ccc2ccccc2c1	5.7
O=C(O)CNS(=O)(=O)c1ccccc1	130
COc1ccc(S(=O)(=O)N(CC(=O)O)c2ccccc2)cc1	1.8
O=C(O)CN(c1ccccc1Cl)S(=O)(=O)c1ccccc1	7.6
O=C(O)CNS(=O)(=O)c1ccccc1[N+](=O)[O-]	13
Nc1cccc(S(=O)(=O)N(CC(=O)O)c2ccccc2)c1	27
Nc1ccc(N(CC(=O)O)S(=O)(=O)c2ccccc2)cc1	68
Nc1ccccc1S(=O)(=O)NCC(=O)O	37
Cc1ccccc1N(CC(=O)O)S(=O)(=O)c1ccccc1	340
Cc1cccc(N(CC(=O)O)S(=O)(=O)c2ccccc2)c1	27
COc1ccc(N(CC(=O)O)S(=O)(=O)c2ccccc2)cc1	38
Nc1ccccc1S(=O)(=O)N(CC(=O)O)c1ccccc1	67
COc1ccc(S(=O)(=O)NCC(=O)O)cc1	31

Other lines, results leading:

IC50 [µM]	SMILES
340	O=C(O)[C@H](NS(=O)(=O)c1ccc(Cl)cc1)c1ccccc1
8.9	Cc1ccc(S(=O)(=O)N[C@H](C(=O)O)c2ccccc2)cc1
8.6	O=C(O)[C@@H](NS(=O)(=O)c1ccc([N+](=O)[O-])cc1)c1ccccc1
13	COc1ccc(S(=O)(=O)N[C@H](C(=O)O)c2ccccc2)cc1
11	O=C(O)[C@@H](NS(=O)(=O)c1ccccc1)c1ccccc1
980	O=C(O)[C@H](NS(=O)(=O)c1ccc([N+](=O)[O-])cc1)c1ccccc1
960	O=C(O)[C@H](NS(=O)(=O)c1ccc(F)cc1)c1ccccc1
7.1	O=C(O)[C@@H](NS(=O)(=O)c1ccc(Cl)cc1)c1ccccc1
90	Cc1ccc(S(=O)(=O)N[C@@H](C(=O)O)c2ccccc2)cc1
36	COc1ccc(S(=O)(=O)N[C@@H](C(=O)O)c2ccccc2)cc1
460	O=C(O)[C@H](NS(=O)(=O)c1ccccc1)c1ccccc1
25	O=C(O)[C@@H](NS(=O)(=O)c1ccc(F)cc1)c1ccccc1
8.7	O=C(O)CN(c1cccc([N+](=O)[O-])c1)S(=O)(=O)c1ccccc1
65	O=C(O)c1ccccc1NS(=O)(=O)c1ccccc1
> 2000	CN(c1ccccc1C(=O)O)S(=O)(=O)c1ccc([N+](=O)[O-])cc1
1.3	O=C(O)CN(c1ccccc1)S(=O)(=O)c1cccc([N+](=O)[O-])c1
79	O=C(O)CNS(=O)(=O)c1ccc([N+](=O)[O-])cc1
69	Cc1ccc(S(=O)(=O)Nc2ccccc2C(=O)O)cc1
7.9	Nc1ccc(S(=O)(=O)Nc2ccccc2C(=O)O)cc1
4.4	O=C(O)CN(c1ccccc1)S(=O)(=O)c1ccc([N+](=O)[O-])cc1
0.88	O=C(O)CNS(=O)(=O)c1ccc(NC(=O)c2ccccc2)cc1
130	O=C(O)c1ccccc1NS(=O)(=O)c1ccc(Cl)cc1
26	O=C(O)CN(c1ccccc1)S(=O)(=O)c1ccc(F)cc1
390	O=C(O)c1ccccc1NS(=O)(=O)c1ccc([N+](=O)[O-])cc1
14	Cc1ccc(S(=O)(=O)N(CC(=O)O)c2ccccc2)cc1
85	O=C(O)c1ccccc1NS(=O)(=O)c1ccc(Br)cc1
230	O=C(O)C(NS(=O)(=O)c1ccc2ccccc2c1)c1ccccc1 (single isomer, unassigned; 6m)
2.5	O=C(O)C(NS(=O)(=O)c1ccc2ccccc2c1)c1ccccc1 (single isomer, unassigned; 6n)

Reference: ChEMBL document CHEMBL1124315, “N- and 2-substituted N-(phenylsulfonyl)glycines as inhibitors of rat lens aldose reductase” (J Med Chem, 1989)
